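Growth conditions: 96-well plates. Treatment: test compound, 48 hours, 5 concentrations. Analysis: linear interpolation between bracketing concentrations; unreached endpoints set to highest concentration. The concentration for full growth arrest is given as TGI.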 Where a SMILES comes first, the peptide text is derived from it. The star is where a group is joined. Cbz = O=C(OCc1ccccc1)*; Boc = CC(C)(C)OC(=O)*; OSu = O=C1CCC(=O)N1O*; Bn = c1ccc(C*)cc1
Key:
Assay in all cases: DTP human tumour cell line panel, 48 h
LOX IMVI melanoma = test system: LOX IMVI melanoma
SK-MEL-2 melanoma = test system: SK-MEL-2 melanoma
UO-31 renal = test system: UO-31 renal
HCT-116 colon = test system: HCT-116 colon
MALME-3M melanoma = test system: MALME-3M melanoma
COLO 205 colon = test system: COLO 205 colon
SNB-19 CNS = test system: SNB-19 CNS
SR leukemia = test system: SR leukemia
SK-MEL-5 melanoma = test system: SK-MEL-5 melanoma
HCC-2998 colon = test system: HCC-2998 colon
BT-549 breast = test system: BT-549 breast
UACC-62 melanoma = test system: UACC-62 melanoma
HT29 colon = test system: HT29 colon
HOP-92 NSCLC = test system: HOP-92 NSCLC

Row | Structure (SMILES) | TGI (LOX IMVI melanoma) [µM] | TGI (SK-MEL-2 melanoma) [µM] | TGI (UO-31 renal) [µM] | TGI (HCT-116 colon) [µM] | TGI (MALME-3M melanoma) [µM] | TGI (COLO 205 colon) [µM] | TGI (SNB-19 CNS) [µM] | TGI (SR leukemia) [µM] | TGI (SK-MEL-5 melanoma) [µM] | TGI (HCC-2998 colon) [µM] | TGI (BT-549 breast) [µM] | TGI (UACC-62 melanoma) [µM] | TGI (HT29 colon) [µM] | TGI (HOP-92 NSCLC) [µM]
1 | CCN1C(=O)C(C)S/C1=N\NC(=O)CSc1nc2ccccc2c(=O)n1CC (configuration not stated) | > 100 | > 100 | > 100 | > 100 | > 100 | > 100 | > 100 | > 100 | > 100 | > 100 | > 100 | > 100 | – | –
2 | N#Cc1c(N)[nH]c(=S)c(C#N)c1-c1ccccc1 | > 100 | > 100 | > 100 | > 100 | > 100 | – | > 100 | > 100 | > 100 | > 100 | > 100 | > 100 | > 100 | –
3 | Cc1ncc2c(=O)c3c(oc2n1)c1ccccc1n3Cc1ccccc1 | > 100 | – | > 100 | > 100 | > 100 | > 100 | > 100 | > 100 | > 100 | > 100 | > 100 | 93.9 | > 100 | –
4 | CN(N)c1cc(=O)[nH]c(=O)[nH]1 | > 100 | – | – | > 100 | > 100 | – | > 100 | > 100 | > 100 | > 100 | 50.6 | > 100 | > 100 | –
5 | CC1=CC[C@@]2(CO)[C@@H]([C@@H]1C)[C@H]1CC[C@@H]3[C@@]4(C)CC[C@H](O)C(C)(C)[C@@H]4CC[C@@]3(C)[C@]1(C)C[C@@H]2O | 45.2 | – | > 100 | > 100 | 72.8 | 50.2 | > 100 | – | 42.1 | – | 59.2 | > 100 | > 100 | 44
6 | O=C(c1ccccc1)c1ccc(-n2c3ccccc3c3ccc4c(c32)C(=O)C=CC4=O)cc1 | 16.3 | 37.3 | 7.78 | 16.3 | – | 25.9 | 36.4 | > 34 | 43 | 29.6 | 38.5 | 26.7 | 8.35 | 18.6
7 | CCOC(=O)CSc1nnc2cc(CN3CCCC3)c(-c3ccc(Cl)cc3)nn12 | > 100 | > 100 | > 100 | > 100 | > 100 | > 100 | > 100 | > 100 | > 100 | – | > 100 | > 100 | > 100 | > 100
8 | CN(C)S(=O)(=O)/N=C/c1cccc(/C=N/S(=O)(=O)N(C)C)c1 | > 100 | – | > 100 | > 100 | – | > 100 | > 100 | – | > 100 | > 100 | > 100 | > 100 | – | > 100
9 | C=C(C)[C@@]1(OC(=O)c2cc([N+](=O)[O-])cc([N+](=O)[O-])c2)C[C@@H]2CCCC[C@@H]21 | > 100 | > 100 | > 100 | > 100 | > 100 | > 100 | > 100 | > 100 | – | > 100 | > 100 | > 100 | > 100 | –
10 | C=C[C@@H]1C[C@]2(C(=O)OC)Cc3nc4ccccc4nc3CC(C(=O)OC)=C2O1 | > 100 | > 100 | – | > 100 | > 100 | > 100 | > 100 | – | > 100 | – | > 100 | > 100 | > 100 | –
11 | COc1cc2cccc(N)c2cc1OC | > 100 | > 100 | > 100 | > 100 | > 100 | > 100 | > 100 | > 100 | > 100 | > 100 | > 92.6 | > 100 | > 100 | –
12 | CCCCC(Sc1cc(Cl)c(C)cc1S(=O)(=O)Nc1n[nH]c(N)n1)C(=O)OC (configuration not stated) | > 10 | > 10 | – | > 10 | > 10 | > 10 | > 10 | – | > 10 | > 10 | > 10 | > 10 | > 10 | –
13 | CC(NC(=O)C(N)CC(=O)O)NC(=O)C1CCC1 (configuration not stated) | > 100 | > 100 | > 100 | > 100 | > 100 | > 100 | > 100 | – | > 100 | – | > 100 | > 100 | > 100 | –
14 | CCOC(=O)C(C)NC(=O)C(C)NC(=O)C(C)NC(=O)C(C)NC(=O)C(C)NC(=O)OCc1ccccc1 (configuration not stated) | > 100 | > 100 | > 100 | > 100 | > 100 | > 100 | > 100 | > 100 | > 100 | > 100 | > 100 | > 100 | > 100 | –
15 | COC(=O)/C=C1/CCC(C)(C(=O)NS(=O)(=O)c2ccc(C)cc2)C1(C)C (configuration not stated) | > 100 | > 100 | > 100 | > 100 | > 100 | > 100 | > 100 | – | > 100 | > 100 | > 100 | > 100 | – | > 100
16 | CC(C)(C)OC(=O)NC(Cc1ccc(OCc2ccccc2)cc1)C(=O)NC(CCCCNC(=O)OCc1ccccc1)C(=O)ON1C(=O)CCC1=O (configuration not stated) (Boc-Tyr(Bn)-Lys(Cbz)-OSu; configuration not given here) | – | 33.8 | 76.3 | 41 | 46.9 | 72.1 | 35.3 | 54.9 | 48 | 32 | 43.3 | 33.2 | 80.2 | –
17 | COc1cc(S(=O)(=O)Nc2ccc(-c3csc(N)n3)cc2)ccc1Cl | 34.8 | 35 | 37.2 | 29.7 | 31.4 | 33.6 | 33.8 | 48.4 | 30.6 | – | 43.1 | 30 | 35.8 | 39.5
18 | CCCCCCCCCCCCCCCCOCC(Cl)COP(=O)(O)OP(=O)(O)OCC1OC(n2cc(C)c(=O)[nH]c2=O)CC1O (configuration not stated) | > 100 | > 100 | > 100 | > 100 | > 100 | > 100 | > 100 | – | > 100 | > 100 | > 100 | – | > 100 | > 100
